These results are taken from patent publication US4863925A, “Cyclohexanedione derivative for hepatic disorders and a process for producing the same” (Nihon Nohyaku Co., Ltd., priority 1986, dated 1989).

Data set [1] can be described thus: acute oral toxicity (LD50). To be noted: in vivo, male rat. The protocol:
For example, LD50 value (acute oral toxicity to male rat) of the compound No. 55 is more than 1,000 mg/kg.

Data set [2] concerns hepatic disorder caused by carbon tetrachloride. The experiment in a line: Effect of suppressing hepatic disorder caused by carbon tetrachloride (Test Example 1). The settings on record: 30 mg/kg p.o., 6 h before CCl4 0.05 ml/kg p.o., 24 h after CCl4, mean of five mice; for Liver injury index: 0 healthy, 2 slightly affected, 4 evidently observed injury, 6 serious injury; for P-GPT (plasma glutamic pyruvic transaminase activity): Reitman-Frankel, 2,000 or higher calculated as 2,000. The class given is in vivo, mice (dd-strain, male). Also on record: key to Liver injury index: 0 = healthy, 2 = slight, 4 = evident injury, 6 = serious injury. Here is the method:
Effect of suppressing hepatic disorder caused by carbon tetrachloride. […] The animals were sacrificed 24 hours after the administration of carbon tetrachloride, and the extent of liver injury was examined. On the other hand, blood was collected from the animal at the time of the sacrifice, and centrifuged to obtain plasma. The plasma glutamic pyruvic transminase (GPT) activity was determined according to the method of Reitman-Frankel. The activity was expressed in terms of Karmen Units (K.U.). The conditions of the liver were expressed in terms of liver injury index as follows. |Liver injury index | Condition of liver |0 Healthy liver |2 Slightly affected |4 Evidently observed injury |6 Serious injury Mice were used in groups of five of test were represented by the mean value. When the GPT activity was 2,000 units or higher, or further determination was made, the activity was calculated as 2,000 units for reasons of convenience.

For `COc1ccc(C2CC(=O)C(=C3SC4C(S3)N(C)CCN4C)C(=O)C2)cc1` (centres unmarked) [compound 55], the median lethal dose (LD50) – broadly, the dose expected to kill half of the subjects tested – in data set [1] is more than 1000 mg/kg. In addition, in data set [2], the Liver injury index is recorded as 0.3 and the “P-GPT (plasma glutamic pyruvic transaminase activity)” value (from here on “P-GPT”) is listed as 107 K.U.
On to `CCCN1CCN(CCC)C2SC(=C3C(=O)CC(C)(C)CC3=O)SC21` (centres unmarked) [Compound No. 7], for which, in data set [2], the Liver injury index came out at 0 and the “P-GPT” value is listed as 16 K.U.
On the same counts, the results for `CN1CCN(C)C2SC(=C3C(=O)CC(C4CCCCC4)CC3=O)SC21` (centres unmarked) [compound 80] are 1.0 and 405 K.U.
The corresponding values for `CCOC(=O)C1C(=O)C(=C2SC3C(S2)N(C)CCN3C)C(=O)CC1c1ccc(OC)cc1` (centres unmarked) [compound 103] are 1.0 and 18 K.U.
On the same counts, the results for `CN1CCNC2SC(=C3C(=O)CC(C)(C)CC3=O)SC21.Cl.Cl` (centres unmarked) [compound 118, 2-[2-methyl-2,5-diaza-7,9-dithiabicyclo-(4,3,0)-nonane-8-ylidene]-5,5-dimethyl-1,3-cyclohexanedione dihydrochloride salt] are 0 and 32 K.U.
For `COc1ccc(C2CC(=O)C(=C3SC4C(S3)N(C)CCN4C)C(=O)C2)cc1` (centres unmarked) [compound 122], in data set [2], the Liver injury index worked out at 1.5 and the “P-GPT” value is listed as 231 K.U.
The corresponding values for `CN1CCN(C)C2SC(=C3C(=O)CC(c4ccco4)CC3=O)SC21` (centres unmarked) [Compound No. 79] are 0 and 30 K.U.
For the compound `CC1(C)CC(=O)C(=C2SC3NCCNC3(C)S2)C(=O)C1` (centres unmarked) [compound 111], in data set [2], the Liver injury index is 1.0 and the “P-GPT” value is 14 K.U.
